Consider eight molecules from patent US20230382911A1 (Hoffmann-La Roche Inc., priority 2021, published 2023).

The target of this assay is Recombinant human Mat2a (Homo sapiens (Human), UniProt P31153). Put plainly: Determination of Mat2A activity: 384 well format absorbance-based Mat2A inhibition assay. It counts as biochemical. The conditions noted are these: 12.5 nM Mat2A, 100 μM ATP and Methionine, 2% DMSO, 120 minutes at RT, Biomol Green, absorbance at 635 nm. As to the method: Determination of Mat2A Activity
Measurement of Mat2A inhibition is performed in 384 well format absorbance-based assay.
Recombinant human Mat2a (12.5 nM) and serial diluted compounds in DMSO (range of concentrations from 10 μM to […]) or controls (DMSO) are incubated for 15 minutes at room temperature (RT) in assay buffer containing 50 mM HEPES pH 7.5, 50 mM KCl, 50 mM MgCl2, 0.01% Tween 20 and 10 mM DTT. The reaction is initiated by the addition of the combined substrates ATP and Methionine, each at a final concentration of 100 μM. Final assay condition are 12.5 nM Mat2A, 100 μM ATP and Methionine Substrates and 2% DMSO. After 120 minutes of incubation at RT, the reaction is stopped by the addition of Biomol Green. The absorbance signal is measured at λ=635 nm with a multiplate reader (BMG Pherastar reader or equivalent) after 30 min of equilibration at RT.

Chain of Recombinant human Mat2a (P31153 whole entry): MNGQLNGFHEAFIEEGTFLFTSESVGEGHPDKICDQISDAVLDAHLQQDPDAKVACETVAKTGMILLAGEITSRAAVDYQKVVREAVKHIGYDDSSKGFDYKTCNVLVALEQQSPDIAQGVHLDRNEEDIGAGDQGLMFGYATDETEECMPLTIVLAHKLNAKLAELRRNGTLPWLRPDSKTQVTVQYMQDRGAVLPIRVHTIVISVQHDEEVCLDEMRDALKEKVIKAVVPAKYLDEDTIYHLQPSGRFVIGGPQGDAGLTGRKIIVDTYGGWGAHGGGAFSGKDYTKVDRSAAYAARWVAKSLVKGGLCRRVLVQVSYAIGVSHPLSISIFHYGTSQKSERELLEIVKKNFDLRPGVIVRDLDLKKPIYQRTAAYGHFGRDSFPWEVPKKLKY

Regarding `Cc1ccccc1C(=O)n1nc(N)c2ccc(C3CCC3)nc21` [Example 31, (3-amino-6-cyclobutyl-1H-pyrazolo[3,4-b]pyridin-1-yl)(o-tolyl)methanone], the IC50 worked out at 200 nM. As for `Nc1nn(C(=O)c2cccc3c2OCO3)c2nc(C3CC3)ccc12` [Example 19, (3-amino-6-cyclopropylpyrazolo[3,4-b]pyridin-1-yl)-(1,3-benzodioxol-4-yl)methanone], the concentration for half-maximal inhibition (IC50) worked out at 410 nM.

Take `COc1ccccc1C(=O)n1nc(N)c2ccc(C3CC3)nc21` [Example 7, (3-amino-6-cyclopropylpyrazolo[3,4-b]pyridin-1-yl)-(2-methoxyphenyl)methanone]: the IC50 turned out to be 120 nM.

In the case of `Cc1ccccc1C(=O)n1nc(N)c2ccc(C3=CCOC3)nc21` [Example 36, [3-amino-6-(2,5-dihydrofuran-3-yl)pyrazolo[3,4-b]pyridin-1-yl]-(2-methylyphenyl)methanone], the IC50 came out at 67 nM. In the case of `COc1c(F)cccc1C(=O)n1nc(N)c2ccc(C3CC3)nc21` [Example 57, (3-amino-6-cyclopropyl-1H-pyrazolo[3,4-b]pyridin-1-yl)(3-fluoro-2-methoxyphenyl)methanone], the IC50 came to 110 nM. As for `COc1ccccc1C(=O)n1nc(N)c2ccc(N3C4CCC3CC4)nc21` [Example 53, [3-amino-6-(7-azabicyclo[2.2.1]heptan-7-yl)pyrazolo[3,4-b]pyridin-1-yl]-(2-methoxyphenyl)methanone], the IC50 is 240 nM. The same measure for `Cc1ccccc1C(=O)n1nc(N)c2ccc([C@H]3C[C@@H]3C)nc21` (racemic) [Example 33, (3-amino-6-((1RS,2RS)-2-methylcyclopropyl)-1H-pyrazolo[3,4-b]pyridin-1-yl)(o-tolyl)methanone]: 28 nM; for `COc1ccccc1C(=O)n1nc(N)c2ccc([C@@H]3C[C@H]3C(F)(F)F)nc21` (racemic) [Example 42, [3-amino-6-[(1RS,2RS)-2-(trifluoromethyl)cyclopropyl]pyrazolo[3,4-b]pyridin-1-yl]-(2-methoxyphenyl)methanone]: 200 nM.
